Assay [1] concerns the target T1, ghrelin receptor in BLA cells (Rattus norvegicus, UniProt O08725).
T1 construct: short-term cultures were generated of BLA cells and measured GH protein in the media following treatment with either MK-0677 or vehicle; endogenous in cells; host or cells: short-term primary cultures of basolateral amygdala (BLA) cells
The assay can be described thus: GH release from short-term BLA cell cultures. Type of assay: cell-based. The following applies: versus vehicle, P<0.05. From the text:
To determine whether ghrelin receptor stimulation in amygdala triggers the release of GH as it does from the pituitary,^43 short-term cultures were generated of BLA cells and measured GH protein in the media following treatment with either MK-0677 or vehicle.

Assay [2] concerns GH-mediated signaling in the BLA. The assay can be described thus: Auditory fear conditioning after intra-BLA AAV (GHA or GFP) and 10 days systemic MK-0677 or saline. It is filed as in vivo, rat. To be noted: repeated systemic MK-0677 for 10 days. Here is the method: An AAV viral construct to overexpress a mutant form of the rat GH protein (GHA) that acts as a functional antagonist to endogenous GH was generated.^49,50 Following infusion of AAV to overexpress either GHA or a control protein (GFP) (FIG. 5f), rats were permitted to recover for 5 weeks. After recovery, rats that were infused with GHA received daily injections of either the ghrelin receptor agonist MK-0677 (MK) or saline (SAL) for 10 days. […] At 24 h after the final injection, all rats were subjected to auditory fear conditioning, followed by assessment of long-term auditory fear memory in a subsequent session 48 h later.

Assay [3] deals with rats. The assay can be described thus: Sucrose preference (measuring hedonia) as a measure of depression. Type of assay: in vivo, rat. To be noted: repeated ghrelin receptor stimulation. An excerpt:
Sucrose preference (measuring hedonia) as a measure of depression with low dose MK0677 or high dose MK0677 was also examined. […] Repeated ghrelin receptor stimulation (mimicking one effect of chronic stress, which is to enhance the circulating levels of ghrelin and thus ghrelin signaling) induces depressive behaviors in rats.

Assay [4] relates to rats. In words: Forced swim as a measure of depression. It is filed as in vivo, rat. The following applies: high dose, repeated ghrelin receptor stimulation. An excerpt:
Forced swim as a measure of depression was also examined. […] Repeated ghrelin receptor stimulation (mimicking one effect of chronic stress, which is to enhance the circulating levels of ghrelin and thus ghrelin signaling) induces depressive behaviors in rats.

T1 sequence (O08725 whole entry): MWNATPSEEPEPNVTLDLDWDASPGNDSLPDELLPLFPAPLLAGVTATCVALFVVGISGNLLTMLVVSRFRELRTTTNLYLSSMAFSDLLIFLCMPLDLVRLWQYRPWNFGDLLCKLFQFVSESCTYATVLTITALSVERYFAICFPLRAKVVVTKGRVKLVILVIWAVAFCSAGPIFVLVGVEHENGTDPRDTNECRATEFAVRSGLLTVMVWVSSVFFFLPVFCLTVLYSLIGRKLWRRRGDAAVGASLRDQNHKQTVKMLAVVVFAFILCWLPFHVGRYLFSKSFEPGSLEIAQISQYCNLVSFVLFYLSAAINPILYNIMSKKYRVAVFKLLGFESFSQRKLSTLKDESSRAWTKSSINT

Consider `CC(C)(N)C(=O)N[C@H](COCc1ccccc1)C(=O)N1CCC2(CC1)CN(S(C)(=O)=O)c1ccccc12` [MK-0677], for which, in assay [1], the “GH protein released in the media” value is “significantly elevated release of GH”. Further, the “long-term auditory fear memory” value in assay [2] is listed as “fear-enhancing effects”. The “sucrose preference (hedonia)” value in the assay on rats [3] (high dose) and with rats [3] (low dose) was “led to anhedonia” in each case. For the same molecule, the forced swim behaviour result in the assay with rats [4] was “led to immobility in the forced swim”.
